# According to PubChem BioAssay (NCI):
#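 Five concentrations, 48 hours, 96-well plates. At the GI50, growth is halved. TGI: concentration producing complete growth inhibition.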
# Experiments:
# Assay in all cases: inhibition of tumour cell growth, NCI panel, 48 h
# HL-60(TB) leukemia = test system: HL-60(TB) leukemia
# TK-10 renal = test system: TK-10 renal
# OVCAR-3 ovarian = test system: OVCAR-3 ovarian
# SN12C renal = test system: SN12C renal
# M14 melanoma = test system: M14 melanoma
# OVCAR-8 ovarian = test system: OVCAR-8 ovarian
# MALME-3M melanoma = test system: MALME-3M melanoma
# NCI-H460 lung = test system: NCI-H460 lung
# RPMI-8226 leukemia = test system: RPMI-8226 leukemia
# A498 renal = test system: A498 renal
SMILES,GI50 (HL-60(TB) leukemia),TGI (HL-60(TB) leukemia),GI50 (TK-10 renal),TGI (TK-10 renal),GI50 (OVCAR-3 ovarian),TGI (OVCAR-3 ovarian),GI50 (SN12C renal),TGI (SN12C renal),GI50 (M14 melanoma),TGI (M14 melanoma),GI50 (OVCAR-8 ovarian),TGI (OVCAR-8 ovarian),GI50 (MALME-3M melanoma),TGI (MALME-3M melanoma),GI50 (NCI-H460 lung),TGI (NCI-H460 lung),GI50 (RPMI-8226 leukemia),TGI (RPMI-8226 leukemia),GI50 (A498 renal),TGI (A498 renal)
O=C1Nc2ccccc2SC1C1SC(=S)N(Cc2ccccc2)C1=O (centres undefined),3.46 µM,32.2 µM,5.71 µM,22 µM,2.37 µM,6.31 µM,4.79 µM,15.2 µM,4.6 µM,19.8 µM,23.7 µM,> 88.2 µM,15.9 µM,> 61.5 µM,8.21 µM,29.8 µM,0.488 µM,7.39 µM,14.6 µM,32.9 µM
O=C(Nc1ccc(-n2cc(-c3ccncc3)c(-c3ccc(Cl)c(O)c3)n2)cc1)c1cc(Cl)cc(Cl)c1,4.41 µM,> 31.6 µM,> 19.9 µM,> 100 µM,> 100 µM,> 100 µM,> 100 µM,> 100 µM,1.95 µM,6.67 µM,14.4 µM,> 100 µM,2.56 µM,8.81 µM,4.03 µM,> 100 µM,0.793 µM,4.14 µM,17.3 µM,> 100 µM
Cc1ccc(NC2=C(Cl)C(=O)c3nc(C)ccc3C2=O)cc1,1.98 µM,4.96 µM,2.27 µM,3.81 µM,0.395 µM,1.39 µM,1.37 µM,2.85 µM,1.67 µM,3.22 µM,1.47 µM,3.14 µM,1.75 µM,3.23 µM,1.69 µM,4.57 µM,1.41 µM,4.2 µM,0.0538 µM,3.81 µM
O=C(Oc1ccc([N+](=O)[O-])cc1)N1CCC(C(O)(c2ccc3c(c2)OCO3)c2ccc3c(c2)OCO3)CC1,> 100 µM,> 100 µM,> 100 µM,> 100 µM,> 100 µM,> 100 µM,> 100 µM,> 100 µM,> 100 µM,> 100 µM,> 100 µM,> 100 µM,> 100 µM,> 100 µM,> 100 µM,> 100 µM,> 100 µM,> 100 µM,> 100 µM,> 100 µM
COCCN1C2=CCCCC2=Nc2c(N)nc(N)nc21,,> 100 µM,,> 100 µM,,77.7 µM,,> 100 µM,,> 100 µM,,> 100 µM,,> 100 µM,,> 100 µM,,> 100 µM,,> 100 µM
C#C[C@]1(O)CC[C@H]2[C@@H]3CC=C4c5nc(Nc6ccc(OC)cc6OC)sc5CC[C@]4(C)[C@H]3CC[C@@]21C,1.42 µM,5.91 µM,3.9 µM,15.6 µM,1.58 µM,3.74 µM,3.36 µM,19.2 µM,1.37 µM,3.53 µM,3.2 µM,> 100 µM,0.655 µM,2.85 µM,2.65 µM,10.3 µM,0.248 µM,0.804 µM,0.152 µM,1.23 µM
CNC(=O)OCc1nc(S(C)=O)n(C)c1COC(=O)NC (centres undefined),,> 100 µM,,> 100 µM,,> 100 µM,,> 100 µM,,> 48.3 µM,,> 100 µM,,> 100 µM,,> 100 µM,,> 100 µM,,> 65.6 µM
C=CC(=O)Nc1cc2c(Nc3ccc(OCc4ccccn4)c(Cl)c3)ncnc2cc1OCCN1CCOCC1,2.58 µM,22.5 µM,0.0267 µM,> 100 µM,1.16 µM,29.3 µM,1.49 µM,> 100 µM,4.18 µM,19.6 µM,5.26 µM,> 100 µM,11.2 µM,42.1 µM,4.28 µM,> 100 µM,2.15 µM,> 27.6 µM,1.48 µM,7.23 µM
N#Cc1ccc(-n2cnc(NC(=O)[C@H]3CCN(C#N)C3)c2)cc1,0.51 µM,2.86 µM,1.49 µM,7.83 µM,,4.84 µM,2.72 µM,> 70.3 µM,0.757 µM,6.28 µM,1.92 µM,> 100 µM,0.312 µM,6.58 µM,2.35 µM,> 34.7 µM,1.71 µM,7.46 µM,2.03 µM,4.76 µM
CC(=O)Nc1ccc(/C=c2\sc3nnc(/C=C/c4ccccc4)n3c2=O)cc1,,> 50 µM,,> 50 µM,,> 50 µM,,> 50 µM,,> 50 µM,,> 50 µM,,> 50 µM,,> 50 µM,,> 50 µM,,> 50 µM
O=C(O)[C@@H]1C[C@@H](O)CN1,,> 100 µM,,> 100 µM,,> 100 µM,,> 100 µM,,> 100 µM,,> 100 µM,,> 100 µM,,> 100 µM,,> 100 µM,,> 100 µM
C/C=C(/C)C(=O)OC1C=C(CO)C(=O)C(OC(=O)/C(C)=C\C)C1C(C)C (centres undefined),0.403 µM,3.86 µM,1.38 µM,2.79 µM,0.48 µM,1.66 µM,0.546 µM,1.59 µM,0.795 µM,2.26 µM,0.633 µM,2.21 µM,0.61 µM,1.63 µM,1.25 µM,2.94 µM,0.337 µM,1.37 µM,1.55 µM,2.95 µM
